In ChEMBL document CHEMBL1145395, “De novo design of selective antibiotic peptides by incorporation of unnatural amino acids” (J Med Chem, 2007):
Converted amounts (≈) assume the structure as drawn. The source made the active and inactive calls. The calls are words filed in the database; no cut-off is given here. Non-standard residues stand in square brackets, D forms with d. Residues, ends and D or L forms follow the SMILES beside them. ξ: configuration not given here. Pro(3ξ,4ξ-(CH2)4) = O=C(O)[C@H]1NCC2CCCCC21; Oic = O=C(O)[C@@H]1C[C@@H]2CCCC[C@@H]2N1; Tic = O=C(O)[C@@H]1Cc2ccccc2CN1; ξTic = O=C(O)C1Cc2ccccc2CN1; Orn = NCCC[C@H](N)C(=O)O; Ahx = NCCCCCC(=O)O; GABA = NCCCC(=O)O

Tests used:
[1] = Toxicity to mouse RBC assessed as hemolytic activity at 100 uM; format: cell-based, Erythrocyte; conditions: red blood cells, read-out: Activity
Staphylococcus aureus = assay: Antibacterial activity against methicillin/gentamicin/tetracycline resistant Staphylococcus aureus ATCC 33592; format: functional
Mycobacterium = assay: Antibacterial activity against Mycobacterium ranae ATCC 110; format: functional
Bacillus subtilis = assay: Antibacterial activity against Bacillus subtilis ATCC 43223; format: functional
Salmonella typhimurium = assay: Antibacterial activity against Salmonella Typhimurium ATCC 13311; format: functional, Salmonella enterica subsp. enterica serovar Typhimurium; conditions: Salmonella enterica
[2] = Toxicity to mouse RBC assessed as hemolytic activity at 25 uM; format: cell-based, Erythrocyte; conditions: red blood cells, read-out: Activity
Mus musculus [3] = assay: Acute toxicity in mouse at 25 mg/kg, ip after 6 days; format: organism-based; set-up: dose 25 mg/kg, route intraperitoneal; conditions: in vivo, 144 h
Mus musculus [4] = assay: Acute toxicity in mouse at 1 mg/kg, ip after 6 days; format: organism-based; set-up: dose 1 mg/kg, route intraperitoneal; conditions: in vivo, 144 h
Mus musculus [5] = assay: Acute toxicity in mouse at 5 mg/kg, ip after 6 days; format: organism-based; set-up: dose 5 mg/kg, route intraperitoneal; conditions: in vivo, 144 h
Mus musculus [6] = assay: Effect on wound healing in CD1 mouse skin at 100 ug applied topically after 3 days; format: functional
Mus musculus [7] = assay: Effect on wound healing in CD1 mouse skin at 100 ug applied topically after 5 days; format: functional
Mus musculus [8] = assay: Effect on wound healing in CD1 mouse skin at 100 ug applied topically after 9 days; format: functional
Mus musculus [9] = assay: Effect on wound healing in CD1 mouse skin at 100 ug applied topically after 7 days; format: functional
Mus musculus [10] = assay: Effect on wound healing in CD1 mouse skin at 100 ug applied topically after 11 days; format: functional
Mus musculus [11] = assay: Effect on wound healing in CD1 mouse skin at 100 ug applied topically; format: functional

SMILES	hemolysis at 100 µM [1] [%]	Activity (Staphylococcus aureus)	MIC (Mycobacterium) [µM]	MIC (Bacillus subtilis) [µM]	MIC (Salmonella typhimurium) [µM]	hemolysis at 25 µM [2] [%]	Activity (Mus musculus [3])	Activity (Mus musculus [4])	Activity (Mus musculus [5])	MIC (Staphylococcus aureus) [µM]	Activity (Mus musculus [6]) [%]	Activity (Mus musculus [7]) [%]	Activity (Mus musculus [8]) [%]	Activity (Mus musculus [9]) [%]	Activity (Mus musculus [10]) [%]	CT50 (Mus musculus [11]) [days]
CC(=O)NCC(=O)N[C@@H](Cc1ccccc1)C(=O)N1Cc2ccccc2C[C@H]1C(=O)NCC(=O)N[C@@H](CCCCN)C(=O)N1Cc2ccccc2C[C@H]1C(=O)NCC(=O)N[C@@H](Cc1ccccc1)C(=O)N1Cc2ccccc2C[C@H]1C(=O)NCC(=O)N[C@H](CCCCN)C(=O)N1Cc2ccccc2C[C@H]1C(=O)N[C@@H](CCCCN)C(=O)N[C@@H](CCCCN)C(=O)N[C@@H](CCCCN)C(=O)N[C@@H](CCCCN)C(N)=O	6	inactive	30 (≈ 59.6 µg/mL)	10 (≈ 19.9 µg/mL)	100 (≈ 199 µg/mL)	4.9	–	–	–	–	–	–	–	–	–	–
CC(=O)NCCCC(=O)N[C@@H](Cc1ccccc1)C(=O)N1Cc2ccccc2C[C@H]1C(=O)N1[C@H](C(=O)NCCCC(=O)N[C@@H](CCCCN)C(=O)N2Cc3ccccc3C[C@H]2C(=O)N2[C@H](C(=O)NCCCC(=O)N[C@@H](Cc3ccccc3)C(=O)N3Cc4ccccc4C[C@H]3C(=O)N3[C@H](C(=O)NCCCC(=O)N[C@@H](CCCCN)C(=O)N4Cc5ccccc5C[C@H]4C(=O)N[C@@H](CCCCN)C(=O)N[C@@H](CCCCN)C(=O)N[C@@H](CCCCN)C(=O)N[C@@H](CCCCN)C(N)=O)C[C@@H]4CCCC[C@@H]43)C[C@@H]3CCCC[C@@H]32)C[C@@H]2CCCC[C@@H]21 (Ac-[GABA]F[Tic][Oic][GABA]K[Tic][Oic][GABA]F[Tic][Oic][GABA]K[Tic]KKKK-NH2)	10.8	–	–	–	–	1	Non-toxic	Non-toxic	Non-toxic	–	–	–	–	–	–	–
CC(=O)N[C@@H](Cc1ccccc1)C(=O)N1Cc2ccccc2C[C@H]1C(=O)N1CC2CCCCC2[C@H]1C(=O)N[C@@H](CCCCN)C(=O)N1Cc2ccccc2C[C@H]1C(=O)N1CC2CCCCC2[C@H]1C(=O)N[C@@H](Cc1ccccc1)C(=O)N1Cc2ccccc2C[C@H]1C(=O)N1CC2CCCCC2[C@H]1C(=O)N[C@@H](CCCCN)C(=O)N1Cc2ccccc2C[C@H]1C(=O)N[C@@H](CCCCN)C(=O)N[C@@H](CCCCN)C(=O)N[C@@H](CCCCN)C(=O)N[C@@H](CCCCN)C(N)=O (stereo partly specified) (Ac-F[Tic][Pro(3ξ,4ξ-(CH2)4)]K[Tic][Pro(3ξ,4ξ-(CH2)4)]F[Tic][Pro(3ξ,4ξ-(CH2)4)]K[Tic]KKKK-NH2)	86.8	–	30 (≈ 66.4 µg/mL)	1 (≈ 2.21 µg/mL)	10 (≈ 22.1 µg/mL)	50	Non-toxic	Non-toxic	Non-toxic	3 (≈ 6.64 µg/mL)	–	–	–	–	–	–
CC(=O)NCC(=O)N[C@@H](Cc1ccccc1)C(=O)N1Cc2ccccc2C[C@H]1C(=O)N1CC2CCCCC2[C@H]1C(=O)NCC(=O)N[C@@H](CCCN)C(=O)N1Cc2ccccc2C[C@H]1C(=O)N1CC2CCCCC2[C@H]1C(=O)NCC(=O)N[C@@H](Cc1ccccc1)C(=O)N1Cc2ccccc2C[C@H]1C(=O)N1CC2CCCCC2[C@H]1C(=O)NCC(=O)N[C@@H](CCCN)C(=O)N1Cc2ccccc2C[C@H]1C(=O)N[C@@H](CCCN)C(=O)N[C@@H](CCCN)C(=O)N[C@@H](CCCN)C(=O)N[C@@H](CCCN)C(N)=O (stereo partly specified) (Ac-GF[Tic][Pro(3ξ,4ξ-(CH2)4)]G[Orn][Tic][Pro(3ξ,4ξ-(CH2)4)]GF[Tic][Pro(3ξ,4ξ-(CH2)4)]G[Orn][Tic][Orn][Orn][Orn][Orn]-NH2)	–	–	10 (≈ 23.6 µg/mL)	0.3 (≈ 0.707 µg/mL)	3 (≈ 7.07 µg/mL)	–	–	–	–	3 (≈ 7.07 µg/mL)	38.8	51.2	72.8	67.2	81.1	4.7
CC(=O)NCC(=O)N[C@@H](Cc1ccccc1)C(=O)N1Cc2ccccc2C[C@H]1C(=O)N1[C@H](C(=O)NCC(=O)N[C@@H](CCCCN)C(=O)N2Cc3ccccc3C[C@H]2C(=O)N2[C@H](C(=O)NCC(=O)N[C@@H](Cc3ccccc3)C(=O)N3Cc4ccccc4C[C@H]3C(=O)N3[C@H](C(=O)NCC(=O)N[C@@H](CCCCN)C(=O)N4Cc5ccccc5C[C@H]4C(=O)N[C@@H](CCCCN)C(=O)N[C@@H](CCCCN)C(=O)N[C@@H](CCCCN)C(=O)N[C@@H](CCCCN)C(N)=O)C[C@@H]4CCCC[C@@H]43)C[C@@H]3CCCC[C@@H]32)C[C@@H]2CCCC[C@@H]21 (Ac-GF[Tic][Oic]GK[Tic][Oic]GF[Tic][Oic]GK[Tic]KKKK-NH2)	–	–	10 (≈ 24.4 µg/mL)	1 (≈ 2.44 µg/mL)	10 (≈ 24.4 µg/mL)	–	–	–	–	3 (≈ 7.32 µg/mL)	36.3	51.5	69.8	63.3	77.5	6.1
CC(=O)NCC(=O)N[C@@H](Cc1ccccc1)C(=O)N1Cc2ccccc2C[C@H]1C(=O)NCC(=O)NCC(=O)N[C@@H](CCCCN)C(=O)N1Cc2ccccc2C[C@H]1C(=O)NCC(=O)NCC(=O)N[C@@H](Cc1ccccc1)C(=O)N1Cc2ccccc2C[C@H]1C(=O)NCC(=O)NCC(=O)N[C@@H](CCCCN)C(=O)N1Cc2ccccc2C[C@H]1C(=O)N[C@@H](CCCCN)C(=O)N[C@@H](CCCCN)C(=O)N[C@@H](CCCCN)C(=O)N[C@@H](CCCCN)C(N)=O (Ac-GF[Tic]GGK[Tic]GGF[Tic]GGK[Tic]KKKK-NH2)	5.7	inactive	30 (≈ 64.8 µg/mL)	10 (≈ 21.6 µg/mL)	100 (≈ 216 µg/mL)	3.8	–	–	–	–	–	–	–	–	–	–
CC(=O)NCCCCCC(=O)N[C@@H](Cc1ccccc1)C(=O)N1Cc2ccccc2C[C@H]1C(=O)N1CC2CCCCC2[C@H]1C(=O)NCCCCCC(=O)N[C@@H](CCCCN)C(=O)N1Cc2ccccc2C[C@H]1C(=O)N1CC2CCCCC2[C@H]1C(=O)NCCCCCC(=O)N[C@@H](Cc1ccccc1)C(=O)N1Cc2ccccc2C[C@H]1C(=O)N1CC2CCCCC2[C@H]1C(=O)NCCCCCC(=O)N[C@@H](CCCCN)C(=O)N1Cc2ccccc2C[C@H]1C(=O)N[C@@H](CCCCN)C(=O)N[C@@H](CCCCN)C(=O)N[C@@H](CCCCN)C(=O)N[C@@H](CCCCN)C(N)=O (stereo partly specified) (Ac-[Ahx]F[Tic][Pro(3ξ,4ξ-(CH2)4)][Ahx]K[Tic][Pro(3ξ,4ξ-(CH2)4)][Ahx]F[Tic][Pro(3ξ,4ξ-(CH2)4)][Ahx]K[Tic]KKKK-NH2)	44.7	–	3 (≈ 8 µg/mL)	1 (≈ 2.67 µg/mL)	10 (≈ 26.7 µg/mL)	26.6	–	–	–	10 (≈ 26.7 µg/mL)	–	–	–	–	–	–
CC(=O)NCC(=O)N1Cc2ccccc2C[C@H]1C(=O)N1CC2CCCCC2[C@H]1C(=O)N[C@@H](CCCCN)C(=O)N1Cc2ccccc2C[C@H]1C(=O)N1CC2CCCCC2[C@H]1C(=O)NCC(=O)N1Cc2ccccc2CC1C(=O)N1CC2CCCCC2[C@H]1C(=O)N[C@@H](CCCCN)C(=O)N1Cc2ccccc2C[C@H]1C(=O)N[C@@H](CCCCN)C(=O)N[C@@H](CCCCN)C(=O)N[C@@H](CCCCN)C(=O)N[C@@H](CCCCN)C(N)=O (stereo partly specified) (Ac-G[Tic][Pro(3ξ,4ξ-(CH2)4)]K[Tic][Pro(3ξ,4ξ-(CH2)4)]G[ξTic][Pro(3ξ,4ξ-(CH2)4)]K[Tic]KKKK-NH2)	26.7	–	3 (≈ 6.1 µg/mL)	1 (≈ 2.03 µg/mL)	10 (≈ 20.3 µg/mL)	9.2	Non-toxic	Non-toxic	Non-toxic	10 (≈ 20.3 µg/mL)	–	–	–	–	–	–
CC(=O)N[C@@H](Cc1ccccc1)C(=O)N1Cc2ccccc2C[C@H]1C(=O)N1CC2CCCCC2[C@H]1C(=O)N[C@@H](CCCCN)C(=O)N1Cc2ccccc2C[C@H]1C(=O)N1CC2CCCCC2[C@H]1C(=O)N[C@@H](Cc1ccccc1)C(=O)N1Cc2ccccc2C[C@H]1C(=O)N1CC2CCCCC2[C@H]1C(=O)N[C@@H](CCCCN)C(=O)N1Cc2ccccc2C[C@H]1C(=O)N[C@@H](CCCCN)C(=O)N[C@@H](CCCCN)C(=O)N[C@@H](CCCCN)C(=O)N[C@@H](CCCCN)C(=O)N[C@@H](CCCCN)C(=O)N[C@@H](CCCCN)C(N)=O (stereo partly specified) (Ac-F[Tic][Pro(3ξ,4ξ-(CH2)4)]K[Tic][Pro(3ξ,4ξ-(CH2)4)]F[Tic][Pro(3ξ,4ξ-(CH2)4)]K[Tic]KKKKKK-NH2)	41.3	–	3 (≈ 7.41 µg/mL)	1 (≈ 2.47 µg/mL)	10 (≈ 24.7 µg/mL)	33.5	–	–	–	3 (≈ 7.41 µg/mL)	–	–	–	–	–	–
CC(C)C[C@H](NC(=O)[C@@H](N)CCCCN)C(=O)N1Cc2ccccc2C[C@H]1C(=O)N1CC2CCCCC2[C@H]1C(=O)NCC(=O)N[C@@H](CCCCN)C(=O)N1Cc2ccccc2C[C@H]1C(=O)N1CC2CCCCC2[C@H]1C(=O)NCC(=O)N[C@@H](Cc1ccccc1)C(=O)N1Cc2ccccc2C[C@H]1C(=O)N1CC2CCCCC2[C@H]1C(=O)NCC(=O)N[C@@H](CCCCN)C(=O)N1Cc2ccccc2C[C@H]1C(=O)N[C@@H](CCCCN)C(=O)N[C@@H](CCCCN)C(=O)N[C@@H](CCCCN)C(=O)N[C@@H](CCCCN)C(N)=O (stereo partly specified) (H-KL[Tic][Pro(3ξ,4ξ-(CH2)4)]GK[Tic][Pro(3ξ,4ξ-(CH2)4)]GF[Tic][Pro(3ξ,4ξ-(CH2)4)]GK[Tic]KKKK-NH2)	43.6	–	3 (≈ 7.31 µg/mL)	1 (≈ 2.44 µg/mL)	3 (≈ 7.31 µg/mL)	24.9	Non-toxic	Non-toxic	Non-toxic	30 (≈ 73.1 µg/mL)	–	–	–	–	–	–
